Earlier results in article PMC4931877 (The Journal of Pharmacology and Experimental Therapeutics, 2016).

Tested on: γ-secretase
Details: ref Fleisher et al., 2008; Coric et al., 2012; Doody et al., 2013; cited from earlier work

SMILES: NC(=O)[C@@H](CCC(F)(F)F)N(Cc1ccc(-c2ncon2)cc1F)S(=O)(=O)c1ccc(Cl)cc1 [BMS-708163, (2R)-2-[(4-chlorophenyl)sulfonyl-[[2-fluoro-4-(1,2,4-oxadiazol-3-yl)phenyl]methyl]amino]-5,5,5-trifluoropentanamide]
- outcome of mild-moderate AD clinical trials: Notch-related nonmelanoma skin cancers and/or progression and worsening of cognitive measures

SMILES: CC(C)[C@H](O)C(=O)N[C@@H](C)C(=O)N[C@@H]1C(=O)N(C)CCc2ccccc21 [LY450139]
- outcome of mild-moderate AD clinical trials: Notch-related nonmelanoma skin cancers and/or progression and worsening of cognitive measures
